Assay results reported in patent US20250034586A1, “METHOD FOR EDITING BANANA GENES” (Tropic Biosciences UK Limited, priority 2021, published 2025).

Legend:
banana ECS = assay: Comparison of Agrobacterium transformation and particle bombardment under CSF selection; type: cell-based; details: CSF 25 μg/L, particle bombardment
Protocol: Transformation using agrobacterium and particle bombardment was compared.
Banana ECS with cells 2/3 days old was pelleted and resuspended in CS medium. 0.5 mL of the suspension (approximately 0.1 mL of ECS) was split accordingly to the number of transformations into small Eppendorf tubes. The cells were incubated at 45° C. for 5 min and after they had cooled down for another 5 min. Then, 1 mL of agrobacterium suspension was added to the banana ECS. The mixture was mixed well and spun down at 1000 rpm for 5 min, and then, it was incubated for 25 min at room temperature. The banana cells were pooled, and the bacteria suspension was removed. The cells were inoculated in CS plates supplemented with acetosyringone 100 μM for 3 days at room temperature to promote transformation.
After 3 days, the banana ECS were collected from the previous media and transferred to CS media supplemented with cefotaxime 300 mg/L. One week later, the banana cells were transferred to EDM plates supplemented with cefo 300 mg/L (control), or cefo 300 mg/L and CSF 25 μg/L or cefo 300 mg/L and CSF 50 μg/L. The media was refreshed every 2 weeks until embryos were developed. Subsequently, the banana embryos were transferred to maturation media without CSF (EMM) for a month and then they were transferred to germination medium (GM4) without CSF until shoots developed.

Sugar cane callus = details: after 5 weeks; 3.6, 20, 50, 200, 500 μg/L tested; cited from earlier work
PPO2, Ma07_g03540 = assay: Trait co-editing in selected embryos (PBE #3); type: cell-based, banana; details: for PPO2 edited embryos total: 16 embryos tested
Protocol: We transformed ECS as described previously in Example 6, using the new co-editing plasmids detailed in Table 11 above. Embryos were regenerated as detailed previously, either on media without selection, with 25 mg/L G418, 25 μg/L CSF or 50 μg/L CSF. Initial genotyping of all plasmids tested:
• All with CsVMV-rAPOBEC1 CBE (rAPOBEC+nCas9 (D10A) PBE from Zong et al. 2017*) and nosP-NptII • pMol_0925 (sgGFP-pNOS::Kan::tOCS-pCsVMV::nCas9PBE1::tg7-Dummy-pTaU6::sg1GFP_58-pTaU6::sg2GFP_59) • pMol_0934 (sgGFP, sgALS1-pNOS::Kan::tOCS-pCsVMV::nCas9PBE1::tg7-taU6::MaALS1sg2_2021-pTaU6::sg1GFP_58-pTaU6::sg2GFP_59) • pMol_0935 (sgGFP, sgALS2-pNOS::Kan::tOCS-pCsVMV::nCas9PBE1::tg7-taU6::MaALS2sg2_2023-pTaU6::sg1GFP_58-pTaU6::sg2GFP_59) • pMol_0926 (sgPPO2, sgALS1-pNOS::Kan::tOCS-pCsVMV::nCas9PBE1::tg7-taU6::MaALS1sg2_2021-pTaU6::sg1PPO2_2961-pTaU6::sg2PPO2_2962-pTaU6::sg3PPO2_2963) • pMol_0927 (sgPPO2, sgALS1-pNOS::Kan::tOCS-pCsVMV::nCas9PBE1::tg7-taU6::MaALS1sg2_2021-pTaU6::sg3PPO2_2963-pTaU6::sg4PPO2_2964) • pMol_0928 (sgACO1, sgALS1-pNOS::Kan::tOCS-pCsVMV::nCas9PBE1::tg7-taU6::MaALS1sg2_2021-pTaU6::sg1ACO1_2965-pTaU6::sg2ACO1_2966-pTaU6::sg3ACO1_2967) • pMol_0929 (sgPPO2, sgALS2-pNOS::Kan::tOCS-pCsVMV::nCas9PBE1::tg7-taU6::MaALS2sg2_2023-pTaU6::sg1PPO2_2961-pTaU6::sg2PPO2_2962-pTaU6::sg3PPO2_2963) • pMol_0930 (sgPPO2, sgALS2-pNOS::Kan::tOCS-pCsVMV::nCas9PBE1::tg7-taU6::MaALS2sg2_2023-pTaU6::sg3PPO2_2963-pTaU6::sg4PPO2_2964) • pMol_0931 (sgACO1, sgALS2-pNOS::Kan::tOCS-pCsVMV::nCas9PBE1::tg7-taU6::MaALS2sg2_2023-pTaU6::sg1ACO1_2965-pTaU6::sg2ACO1_2966-pTaU6::sg3ACO1_2967) ECS were left to ‘recover’ after transformation for 1 week in CS+cefo 300 mg/L. We regenerated embryos in 4 different conditions: • 1. No selection • 2. Stable G418 selection (in EDM only 2-3 months) from PBE #3 only (PBE #1/2 plasmids only have mCherry, not NptII) • 3. 25 μg/L chlorsulfuron (in EDM only 2-3 months) • 4. 50 μg/L chlorsulfuron (in EDM only 2-3 months)
gDNA from embryos and plantlets was extracted and qPCR was used to test for the presence of integrated tDNA in the plant genome. Three independent qPCRs were run on each sample with different sets of primers (listed below) spanning the tDNA, ranging from the left to right border. An additional qPCR was run on an endogenous banana gene (actin) for normalisation of Ct values. All qPCRs were run on the LightCycler® 96 System (Roche) using PowerUp™ SYBR® Green Master Mix (Thermo Fisher Scientific™).
For edit validation, amplicons for each target gene (als1, als2, ppo2, aco1) were made using Q5® High-Fidelity 2× Master Mix (New England Biolabs, NEB) using reaction settings listed below. PCR products were purified using Monarch® PCR & DNA Cleanup Kit (NEB) according to manufacturer's specifications. The amplicons were after validated by Sanger sequencing.

Rice protoplasts = details: for 10dd; cited from earlier work
Tomato plants = details: in vivo; cited from earlier work
[1] = test system: Marchantia polymorpha spores; details: (180 μg/L) for 7dd; cited from earlier work

## COc1nc(C)nc(NC(=O)NS(=O)(=O)c2ccccc2Cl)n1 [CSF, chlorsulfuron]
Banana ECS
  Suitability for selection of edited bombarded cells: too strong for selection of edited bombarded cells
Sugar cane callus
  Best concentration for selection: 3.6 µg/L
PPO2, Ma07_g03540; 25CSF selection
  Percentage edited PPO2 embryos: 37.5
  PPO2 edited embryos total: 6
PPO2, Ma07_g03540; 50CSF selection
  Percentage edited PPO2 embryos: 43.75
  PPO2 edited embryos total: 7
Rice protoplasts
  CSF concentration reported to be effective: 3.6 µg/L
Tomato plants
  CSF concentration reported to be effective: 3.6 µg/L
[1]
  CSF concentration reported to be effective: 0.5 µM
